Measurements from patent publication US8664228B2, “3,5-diamino-6-chloro-pyrazine-2-carboxylic acid derivatives and their use as epithelial sodium channel blockers for the treatment of airway diseases” (Novartis AG, priority 2008, dated 2014).
pIC50: −log10 of the molar value. Counter-ions that a name gives are not always drawn.

The compounds below were run against T1, epithelial sodium channel (ENaC) (Homo sapiens, UniProt P37088+P51168+P51170) (assay: Short circuit current (ISC) measurements in human bronchial epithelial cells, inhibition of amiloride-sensitive ISC). Conditions: Human Bronchial Epithelial cells (HBECs) at air-liquid interface, Ussing chamber, apical addition.
T1 construct: host or cells: primary human bronchial epithelial cells (HBECs), air-liquid interface culture
T1 sequence (P37088 1-669): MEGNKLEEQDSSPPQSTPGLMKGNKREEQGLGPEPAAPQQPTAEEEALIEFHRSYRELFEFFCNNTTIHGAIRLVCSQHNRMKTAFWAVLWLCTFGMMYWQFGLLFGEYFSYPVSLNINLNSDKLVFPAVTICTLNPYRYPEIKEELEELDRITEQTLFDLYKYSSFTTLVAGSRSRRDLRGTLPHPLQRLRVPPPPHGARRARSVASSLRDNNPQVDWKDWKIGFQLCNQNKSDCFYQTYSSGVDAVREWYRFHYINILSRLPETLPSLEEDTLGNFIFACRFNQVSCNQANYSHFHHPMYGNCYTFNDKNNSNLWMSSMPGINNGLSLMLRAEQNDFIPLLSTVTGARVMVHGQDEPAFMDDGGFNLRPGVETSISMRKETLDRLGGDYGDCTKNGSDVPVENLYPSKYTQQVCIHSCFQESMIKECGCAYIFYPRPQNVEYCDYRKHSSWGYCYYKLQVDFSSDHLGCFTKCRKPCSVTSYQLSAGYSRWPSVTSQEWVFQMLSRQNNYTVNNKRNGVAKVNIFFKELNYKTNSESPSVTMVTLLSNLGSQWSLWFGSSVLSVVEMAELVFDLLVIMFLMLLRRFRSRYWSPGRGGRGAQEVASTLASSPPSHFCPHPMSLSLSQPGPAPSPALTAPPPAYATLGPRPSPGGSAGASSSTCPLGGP
T1 sequence (P51168 1-640): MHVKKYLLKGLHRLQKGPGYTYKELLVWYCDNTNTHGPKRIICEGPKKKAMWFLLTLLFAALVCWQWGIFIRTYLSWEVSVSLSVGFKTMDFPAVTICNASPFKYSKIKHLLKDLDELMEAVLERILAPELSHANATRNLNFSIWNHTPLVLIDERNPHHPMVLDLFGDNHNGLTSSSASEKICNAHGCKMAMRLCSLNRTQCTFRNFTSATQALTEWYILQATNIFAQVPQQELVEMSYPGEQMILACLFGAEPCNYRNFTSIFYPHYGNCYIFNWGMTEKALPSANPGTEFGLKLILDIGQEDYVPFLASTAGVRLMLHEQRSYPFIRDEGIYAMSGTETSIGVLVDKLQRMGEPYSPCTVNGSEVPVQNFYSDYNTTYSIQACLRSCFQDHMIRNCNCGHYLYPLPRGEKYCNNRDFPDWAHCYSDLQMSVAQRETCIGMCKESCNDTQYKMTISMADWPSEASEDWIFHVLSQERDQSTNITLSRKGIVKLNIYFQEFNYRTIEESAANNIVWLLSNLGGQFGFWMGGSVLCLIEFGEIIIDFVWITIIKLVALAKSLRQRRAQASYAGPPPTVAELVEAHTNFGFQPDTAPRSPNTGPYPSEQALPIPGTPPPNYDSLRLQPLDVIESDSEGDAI
T1 sequence (P51170 1-649): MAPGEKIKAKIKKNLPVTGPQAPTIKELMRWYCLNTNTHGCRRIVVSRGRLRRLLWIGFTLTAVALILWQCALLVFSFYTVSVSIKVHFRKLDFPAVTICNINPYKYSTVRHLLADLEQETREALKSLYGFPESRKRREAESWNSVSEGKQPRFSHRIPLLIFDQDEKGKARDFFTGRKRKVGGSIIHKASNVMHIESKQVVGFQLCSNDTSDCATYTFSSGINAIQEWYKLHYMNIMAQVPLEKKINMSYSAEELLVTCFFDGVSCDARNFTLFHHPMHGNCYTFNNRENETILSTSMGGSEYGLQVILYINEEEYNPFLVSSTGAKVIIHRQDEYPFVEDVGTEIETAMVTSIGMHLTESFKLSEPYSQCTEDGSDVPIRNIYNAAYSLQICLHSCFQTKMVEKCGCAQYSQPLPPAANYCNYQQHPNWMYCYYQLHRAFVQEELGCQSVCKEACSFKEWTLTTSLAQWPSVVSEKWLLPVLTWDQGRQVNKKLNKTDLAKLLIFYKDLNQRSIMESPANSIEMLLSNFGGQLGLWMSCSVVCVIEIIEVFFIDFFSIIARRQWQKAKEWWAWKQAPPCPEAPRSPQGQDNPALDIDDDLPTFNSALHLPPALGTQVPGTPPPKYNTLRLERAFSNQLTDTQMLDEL
Assay type: cell-based
Method: Human Bronchial Epithelial cells (HBECs) (Cambrex) were cultured under air-liquid interface conditions to provide a well differentiated mucociliary phenotype.
HBECs were cultured using a modification of the method described by Gray and colleagues (Gray et al., 1996). Cells were seeded in plastic T-162 flasks and were grown in bronchial epithelial cell growth medium (BEGM; Cambrex) supplemented with bovine pituitary extract (52 μg/mL), hydrocortisone (0.5 μg/mL), human recombinant epidermal growth factor (0.5 ng/mL), epinephrine (0.5 μg/mL), transferrin (10 μg/mL), insulin (5 μg/mL), retinoic acid (0.1 μg/mL), triiodothyronine ([…]), gentamycin (50 μg/mL) and amphotericin B (50 ng/mL). Medium was changed every 48 hours until cells were 90% confluent. Cells were then passaged and seeded (8.25×10^5 cells/insert) on polycarbonate Snapwell inserts (Costar) in differentiation media containing 50% DMEM in BEGM with the same supplements as above but without triiodothyronine and a final retinoic acid concentration of 50 nM (all-trans retinoic acid). Cells were maintained submerged for the first 7 days in culture, after which time they were exposed to an apical air interface for the remainder of the culture period. At this time, media was changed to DMEM:F12 media containing 2% v/v Ultroser G for the remainder of culture. Amphotericin B was removed from all media 3 feeds prior to use in the Ussing Chambers. Cells were used between days 7 and 21 after establishment of the apical-air interface. At all stages of culture, cells were maintained at 37° C. in 5% CO2 in an air incubator.
Snapwell inserts were mounted in Vertical Diffusion Chambers (Costar) and were bathed with continuously gassed Ringer solution (5% CO2 in O2; pH 7.4) maintained at 37° C. containing (in mM): 120 NaCl, 25 NaHCO3, 3.3 KH2PO4, 0.8 K2HPO4, 1.2 CaCl2, 1.2 MgCl2, and 10 glucose. The solution osmolarity was between 280 and 300 mOsmol/kg H2O for all physiological salt solutions used. Cells were voltage clamped to 0 mV (model EVC4000; WPI). RT was measured by applying a 1- or 2-mV pulse at 30-s intervals and calculating RT by Ohm's law. Data were recorded using a PowerLab workstation (ADInstruments).
Test compounds were prepared as a 10 mM stock solution in DMSO (95%). Serial 3-fold dilutions were freshly prepared in an appropriate vehicle (distilled H2O or Ringers solution). The initial concentration was added to the apical chamber as a 1000× concentrate in 5 μL, resulting in a final 1× concentration the 5 mL volume of the Ussing chamber. Subsequent additions of compound were added in a 3.3 μL volume of the 1000× serially diluted stock solution. At the completion of the concentration-response experiment, amiloride (10 μM) was added into the apical chamber to enable the total amiloride-sensitive current to be measured. An amiloride control IC50 was established at the start of each experiment.
Results are expressed as the mean % inhibition of the amiloride-sensitive ISC. Concentration-response curves were plotted and IC50 values generated using GraphPad Prism 3.02. Cell inserts were typically run in duplicate and the IC50 calculated on the mean % inhibition data.

SMILES | pIC50
CCC[C@H](CNC(=O)c1nc(Cl)c(N)nc1N)NC(=N)N [Example 24, 3,5-Diamino-6-chloro-pyrazine-2-carboxylic acid ((R)-2-guanidino-pentyl)-amide trifluoroacetate] | 7.35
CCC[C@H](N)CNC(=O)c1nc(Cl)c(N)nc1N [Example 4, 3,5-Diamino-6-chloro-pyrazine-2-carboxylic acid ((S)-2-amino-pentyl)-amide hydrochloride] | 6.54
Nc1nc(N)c(C(=O)NCC2(N)CCCC2)nc1Cl [Example 11, 3,5-Diamino-6-chloro-pyrazine-2-carboxylic acid (1-amino-cyclopentylmethyl)-amide hydrochloride] | 5.23
N=C(N)N[C@@H](CCCCNC(=O)Cc1ccc(OCc2ccccc2)cc1)CNC(=O)c1nc(Cl)c(N)nc1N [Example 27, 3,5-Diamino-6-chloro-pyrazine-2-carboxylic acid {(S)-6-[2-(4-benzyloxy-phenyl)-acetylamino]-2-guanidino-hexyl}-amide trifluoroacetate] | 6.70
Nc1nc(N)c(C(=O)NC[C@@H](N)CCCCNC(=O)CCc2ccc(OCc3ccccc3)cc2)nc1Cl [Example 21, 3,5-Diamino-6-chloro-pyrazine-2-carboxylic acid {(S)-2-amino-6-[3-(4-benzyloxy-phenyl)-propionylamino]-hexyl}-amide hydrochloride] | 7.19

Further compounds by rising pIC50, results first:

pIC50 | SMILES
5.56 | Nc1nc(N)c(C(=O)NC[C@@H]2CCCN2)nc1Cl [Example 9, 3,5-Diamino-6-chloro-pyrazine-2-carboxylic acid ((S)-1-pyrrolidin-2-ylmethyl)-amide hydrochloride]
7.22 | CCC[C@@H](CNC(=O)c1nc(Cl)c(N)nc1N)NCCCc1ccc(OC)cc1 [Example 26, 3,5-Diamino-6-chloro-pyrazine-2-carboxylic acid {(S)-2-[3-(4-methoxy-phenyl)-propylamino]-pentyl}-amide hydrochloride]
7.31 | CCC[C@@H](CNC(=O)c1nc(Cl)c(N)nc1N)NC(=N)NCCCc1ccc(OC)cc1 [Example 31, 3,5-Diamino-6-chloro-pyrazine-2-carboxylic acid ((S)-2-{N′-[3-(4-methoxy-phenyl)-propyl]-guanidino}-pentyl)-amide]
7.49 | Nc1nc(N)c(C(=O)NC[C@@H](N)CCCCNC(=O)Cc2ccc(OCc3ccccc3)cc2)nc1Cl [Example 12, 3,5-Diamino-6-chloro-pyrazine-2-carboxylic acid {(S)-2-amino-6-[2-(4-benzyloxy-phenyl)-acetylamino]-hexyl}-amide trifluororoacetate]
8.22 | CCC[C@@H](CNC(=O)c1nc(Cl)c(N)nc1N)NC(=N)NCc1ccc(OC)cc1 [Example 32, 3,5-Diamino-6-chloro-pyrazine-2-carboxylic acid {(S)-2-[N′-(4-methoxy-benzyl)-guanidino]-pentyl}-amide]
8.30 | CCC[C@H](CNC(=O)c1nc(Cl)c(N)nc1N)N(CCCc1ccc(OC)cc1)C(=N)N [Example 29, 3,5-Diamino-6-chloro-pyrazine-2-carboxylic acid ((R)-2-{N-[3-(4-methoxy-phenyl)-propyl]-guanidino}-pentyl)-amide trifluoroacetate]
